Source: patent publication US20230357269A1 (LES LABORATOIRES SERVIER, priority 2020, published 2023)

Target: human recombinant LRRK2 protein (Homo sapiens (Human), UniProt Q5S007)
Assay: LRRK2 Kinase Activity Assay (ADP-Glo)
Type: biochemical
Details: LRRK2 wt; LRRKtide peptide and ATP substrates; 1h-incubation at 37° C.
Description: LRRK2 Kinase reactions were carried out in 384-well white polystyrene plates in a final volume of 6 μl using ADP-Glo™ Kinase Assay kit (Promega Corp.). Compound and substrates (LRRKtide peptide and ATP) in assay buffer were first dispensed in wells. Kinase reaction was then started by the addition of human recombinant LRRK2 protein. After 1h-incubation at 37° C., the enzymatic reaction was stopped by the addition of 6 μl of ADP-Glo Reagent-1 and an additional 40-minutes incubation at 23° C. (residual ATP depletion). A final 30-minutes incubation after 12 μL reagent-2 addition (ADP to ATP conversion and luciferin/luciferase reaction) was performed before luminescent signal acquisition (EnVision™ multimode plate reader-PerkinElmer, Inc.). Data from 10 individual concentrations of tested compounds (N=2) were fitted (XLfit™-ID Business Solutions Ltd) to deliver IC50s (compound concentration leading to 50% inhibition of reference enzymatic activity).
The compounds are dissolved to 5 mM in DMSO. When needed, solutions are sonicated in a bath sonicator.
Table 2 provides the IC50 values of the compounds according to the invention, obtained using the above-mentioned kinase assay. Activities are represented as +++, ++ and +, having the following meanings: • +++ means IC50<10 nM • ++ means 10 nM≤IC50<100 nM • + means 100 nM≤IC50<1 μM.

Chain of human recombinant LRRK2 protein (Q5S007 whole entry): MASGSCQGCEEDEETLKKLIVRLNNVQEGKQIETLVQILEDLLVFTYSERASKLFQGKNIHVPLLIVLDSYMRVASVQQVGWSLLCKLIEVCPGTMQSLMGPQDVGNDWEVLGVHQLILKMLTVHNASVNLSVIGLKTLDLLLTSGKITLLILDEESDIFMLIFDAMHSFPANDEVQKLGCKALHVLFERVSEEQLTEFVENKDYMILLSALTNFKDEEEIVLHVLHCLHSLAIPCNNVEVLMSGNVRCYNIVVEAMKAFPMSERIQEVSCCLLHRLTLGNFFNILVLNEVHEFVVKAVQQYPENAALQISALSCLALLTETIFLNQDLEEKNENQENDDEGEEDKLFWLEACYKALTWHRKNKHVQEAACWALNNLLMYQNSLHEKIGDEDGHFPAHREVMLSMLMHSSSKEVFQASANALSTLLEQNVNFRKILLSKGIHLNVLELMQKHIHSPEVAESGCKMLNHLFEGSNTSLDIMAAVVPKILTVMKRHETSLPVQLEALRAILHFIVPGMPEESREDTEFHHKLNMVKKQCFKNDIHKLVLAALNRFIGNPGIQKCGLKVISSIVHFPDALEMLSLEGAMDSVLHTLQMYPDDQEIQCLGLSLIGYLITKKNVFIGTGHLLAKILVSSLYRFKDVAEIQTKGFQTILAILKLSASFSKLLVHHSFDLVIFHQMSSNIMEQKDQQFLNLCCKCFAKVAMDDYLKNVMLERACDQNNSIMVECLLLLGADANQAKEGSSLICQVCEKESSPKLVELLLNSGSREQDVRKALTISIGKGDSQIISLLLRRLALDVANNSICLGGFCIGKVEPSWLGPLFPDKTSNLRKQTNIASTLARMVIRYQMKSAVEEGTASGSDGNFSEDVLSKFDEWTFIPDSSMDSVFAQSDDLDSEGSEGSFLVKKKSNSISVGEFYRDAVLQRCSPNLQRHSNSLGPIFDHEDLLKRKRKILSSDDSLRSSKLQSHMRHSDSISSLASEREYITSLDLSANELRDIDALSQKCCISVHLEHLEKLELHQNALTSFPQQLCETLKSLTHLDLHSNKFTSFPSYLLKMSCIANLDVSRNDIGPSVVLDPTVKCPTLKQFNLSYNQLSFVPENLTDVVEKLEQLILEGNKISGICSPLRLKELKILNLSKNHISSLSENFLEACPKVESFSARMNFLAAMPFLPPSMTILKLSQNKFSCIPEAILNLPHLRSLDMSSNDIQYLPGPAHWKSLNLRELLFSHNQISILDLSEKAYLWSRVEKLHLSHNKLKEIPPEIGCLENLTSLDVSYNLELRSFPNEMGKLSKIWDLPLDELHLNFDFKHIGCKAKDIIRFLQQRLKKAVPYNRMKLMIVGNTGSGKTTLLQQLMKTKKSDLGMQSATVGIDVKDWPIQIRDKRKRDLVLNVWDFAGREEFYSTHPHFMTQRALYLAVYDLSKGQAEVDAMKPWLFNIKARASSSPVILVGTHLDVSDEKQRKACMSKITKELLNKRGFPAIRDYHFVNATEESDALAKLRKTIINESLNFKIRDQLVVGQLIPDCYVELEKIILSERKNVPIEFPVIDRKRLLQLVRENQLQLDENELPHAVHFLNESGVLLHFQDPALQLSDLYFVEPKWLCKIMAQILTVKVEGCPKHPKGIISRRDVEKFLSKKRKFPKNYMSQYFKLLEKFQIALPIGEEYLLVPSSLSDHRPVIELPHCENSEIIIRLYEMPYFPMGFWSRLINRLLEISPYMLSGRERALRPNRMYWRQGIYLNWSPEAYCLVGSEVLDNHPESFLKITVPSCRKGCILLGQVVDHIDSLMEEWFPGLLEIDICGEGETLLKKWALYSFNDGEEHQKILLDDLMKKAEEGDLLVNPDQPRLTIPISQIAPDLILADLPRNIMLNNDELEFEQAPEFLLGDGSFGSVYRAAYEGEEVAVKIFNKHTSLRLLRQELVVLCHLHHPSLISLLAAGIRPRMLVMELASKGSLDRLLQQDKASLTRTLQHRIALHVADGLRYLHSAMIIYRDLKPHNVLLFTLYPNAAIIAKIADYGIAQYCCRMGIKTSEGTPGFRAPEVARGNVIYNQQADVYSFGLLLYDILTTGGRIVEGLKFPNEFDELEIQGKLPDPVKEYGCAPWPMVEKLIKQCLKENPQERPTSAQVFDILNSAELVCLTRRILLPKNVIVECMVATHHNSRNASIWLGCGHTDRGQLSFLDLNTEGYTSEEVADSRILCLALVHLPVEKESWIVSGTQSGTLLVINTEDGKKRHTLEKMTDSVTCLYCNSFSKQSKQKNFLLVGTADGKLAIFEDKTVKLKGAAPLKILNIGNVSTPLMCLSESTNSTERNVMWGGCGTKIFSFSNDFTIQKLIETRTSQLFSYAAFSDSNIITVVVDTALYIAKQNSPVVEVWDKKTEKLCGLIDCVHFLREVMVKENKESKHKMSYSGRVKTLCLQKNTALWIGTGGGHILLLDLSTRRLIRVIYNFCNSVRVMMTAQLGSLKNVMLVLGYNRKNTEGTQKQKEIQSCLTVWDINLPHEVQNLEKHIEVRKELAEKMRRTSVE

Row | Structure (SMILES) | IC50
1 | CC1CCNC(=O)OCc2cc(F)cc(c2)-c2n[nH]c3ccc(cc23)O1 (single isomer, unassigned) [Example 100, (13R) or (13S)-4-fluoro-13-methyl-8,14-dioxa-10,19,20-triazatetracyclo[13.5.2.1^2,6.0^18,21]tricosa-1(20),2(23),3,5,15(22),16,18(21)-heptaen-9-one] | < 10 nM
2 | C[C@@H]1CCNC(=O)OCc2cc(c[nH]c2=O)-c2n[nH]c3ccc(cc23)O1 [Example 144, (13R)-13-methyl-8,14-dioxa-4,10,19,20-tetraazatetracyclo[13.5.2.1^2,6.0^18,21]tricosa-1(20),2,6(23),15,17,21-hexaene-5,9-dione] | < 10 nM
3 | O=C1NCCCOc2ccc3[nH]nc(c3c2)-c2cc(cc(N3CCC4(COC4)C3)c2)CO1 [Example 14, 4-{2-oxa-6-azaspiro[3.4]octan-6-yl}-8,14-dioxa-10,19,20-triazatetracyclo[13.5.2.1^2,6.0^18,21]tricosa-1(20),2,4,6(23),15,17,21-heptaen-9-one] | < 10 nM
4 | C[C@@H]1CCNC(=O)OCc2ccnc(n2)-c2n[nH]c3ccc(cc23)O1 [Example 140, (13R)-13-methyl-8,14-dioxa-3,10,19,20,23-pentaazatetracyclo[13.5.2.1^2,6.0^18,21]tricosa-1(20),2,4,6(23),15,17,21-heptaen-9-one] | 10 to 100 nM
5 | Cc1cc2cc(c1F)C(C)OC(=O)NCCCOc1ccc3[nH]nc-2c3c1 (centres unmarked) [Example 90, 5-fluoro-4,7-dimethyl-8,14-dioxa-10,19,20-triazatetracyclo[13.5.2.1^2,6.0^18,21]tricosa-1(20),2(23),3,5,15(22),16,18(21)-heptaen-9-one] | < 10 nM
6 | C[C@@H]1CCNC(=O)OCc2nc(cn2C)-c2n[nH]c3ccc(cc23)O1 [Example 158, (12R)-4,12-dimethyl-7,13-dioxa-4,9,18,19,22-pentaazatetracyclo[12.5.2. 1^2,5.0^17,20]docosa-1(19),2,5(22),14(21),15,17(20)-hexaen-8-one] | 10 to 100 nM
7 | C[C@@H]1CCNC(=O)OCc2cccc(n2)-c2n[nH]c3ccc(cc23)O1 [Example 114, (13R)-13-methyl-8,14-dioxa-10,19,20,23-tetraazatetracyclo[13.5.2.1^2,6.0^18,21]tricosa-1(20),2,4,6(23),15,17,21-heptaen-9-one] | < 10 nM
8 | C[C@@H]1CCNC(=O)O[C@H](C)c2cc(F)cc(c2)-c2n[nH]c3ccc(cc23)O1 [Example 106, (7R,13R)-4-fluoro-7,13-dimethyl-8,14-dioxa-10,19,20-triazatetracyclo[13.5.2.1^2,6.0^18,21]tricosa-1(20),2,4,6(23),15,17,21-heptaen-9-one] | < 10 nM
9 | C[C@@H]1CCNC(=O)OCc2cccc(c2)-c2n[nH]c3c(F)cc(cc23)O1 [Example 153, (13R)-17-fluoro-13-methyl-8,14-dioxa-10,19,20-triazatetracyclo[13.5.2. 1^2,6.0^18,21]tricosa-1(20),2(23),3,5,15(22),16,18(21)-heptaen-9-one] | < 10 nM
10 | CC1CCNC(=O)OCc2cccc(n2)-c2n[nH]c3ccc(cc23)O1 (centres unmarked) [Example 92, 13-methyl-8,14-dioxa-10,19,20,23-tetraazatetracyclo[13.5.2.1^2,6.0^18,21]tricosa-1(20),2(23),3,5,15(22),16,18(21)-heptaen-9-one] | < 10 nM
11 | O=C1NC[C@@H](F)COc2ccc3[nH]nc(c3c2)-c2cnn(n2)CCO1 [Example 174, (12R)-12-fluoro-8,14-dioxa-4,5,10,19,20,23-hexaazatetracyclo[13.5.2.1^2,5.0^18,21]tricosa-1(20),2(23),3,15,17,21-hexaen-9-one] | < 10 nM
12 | O=C1NCCCOc2ccc3[nH]nc(c3c2)-c2cc(cc(C3=CCNCC3)c2)CO1 [Example 82, 4-(1,2,3,6-tetrahydropyridin-4-yl)-8,14-dioxa-10,19,20-triazatetracyclo[13.5.2.1^2,6.0^18,21]tricosa-1(20),2(23),3,5,15(22),16,18(21)-heptaen-9-one] | < 10 nM
13 | CC1Cn2cc(cn2)-c2n[nH]c3ccc(cc23)O[C@H](C)CCNC(=O)O1 (stereo partly drawn) [Example 113, (13R)-7,13-dimethyl-8,14-dioxa-4,5,10,19,20-pentaazatetracyclo[13.5.2.1^2,5.0^18,21]tricosa-1(20),2(23),3,15(22),16,18(21)-hexaen-9-one] | < 10 nM
14 | CC1CCOc2ccc3[nH]nc(c3c2)-c2cnn(c2)CCOC(=O)N1 (centres unmarked) [Example 85, 11-methyl-8,14-dioxa-4,5,10,19,20-pentaazatetracyclo[13.5.2.1^2,5.0^18,21]tricosa-1(20),2(23),3,15(22),16,18(21)-hexaen-9-one] | 10 to 100 nM

The next lines start with the values.

Row | IC50 | Structure (SMILES)
15 | < 10 nM | O=C1NCCCOc2ccc3[nH]nc(c3c2)-c2cc(cc(C3CC3)c2)CO1 [Example 48, 4-cyclopropyl-8,14-dioxa-10,19,20-triazatetracyclo[13.5.2.1^2,6.0^18,21]tricosa-1(20),2,4,6(23),15,17,21-heptaen-9-one]
16 | < 10 nM | O=C1NCCCOc2ccc3[nH]nc(c3c2)-c2csc(n2)CCO1 [Example 134, 8,14-dioxa-4-thia-10,19,20,23-tetraazatetracyclo[13.5.2.1^2,5.0^18,21]tricosa-1(20),2,5(23),15,17,21-hexaen-9-one]
17 | < 10 nM | Cc1cc2cc(c1)-c1n[nH]c3ccc(cc13)OCCCNC(=O)OC2 [Example 18, 4-methyl-8,14-dioxa-10,19,20-triazatetracyclo[13.5.2.1^2,6.0^18,21]tricosa-1(20),2,4,6(23),15,17,21-heptaen-9-one]
18 | < 10 nM | O=C1NCCCOc2ccc3[nH]nc(c3c2)-c2cc(cc(CN3CCCC3)c2)CO1 [Example 42, 4-[(pyrrolidin-1-yl)methyl]-8,14-dioxa-10,19,20-triazatetracyclo[13.5.2.1^2,6.0^18,21]tricosa-1(20),2,4,6(23),15,17,21-heptaen-9-one]
19 | < 10 nM | O=C1NCCCOc2ccc3[nH]nc(c3c2)C2=CN=C(CCO1)S2 [Example 149, 8,14-dioxa-23-thia-4,10,19,20-tetraazatetracyclo[13.5.2.1^2,5.0^18,21]tricosa-1(20),2,4,15(22),16,18(21)-hexaen-9-one]
20 | < 10 nM | O=C1NCCCOc2ccc3[nH]nc(c3c2)-c2cncc(c2)CO1 [Example 1, 8,14-dioxa-4,10,19,20-tetraazatetracyclo[13.5.2.1^2,6.0^18,21]tricosa-1(20),2,4, 6(23),15,17,21-heptaen-9-one]
21 | < 10 nM | O=C1NCCCOc2ccc3[nH]nc(c3c2)-c2cnn(n2)CCO1 [Example 166, 8,14-dioxa-4,5,10,19,20,23-hexaazatetracyclo[13.5.2.1^2,5.0^18,21]tricosa-1(20),2(23),3,15(22),16,18(21)-hexaen-9-one]
22 | < 10 nM | O=C1NCCCOc2ccc3[nH]nc(c3c2)-c2cc(cc(N3CCCCC3)c2)CO1 [Example 36, 4-(piperidin-1-yl)-8,14-dioxa-10,19,20-triazatetracyclo[13.5.2.1^2,6.0^18,21]tricosa-1(20),2,4,6(23),15,17,21-heptaen-9-one]
23 | < 10 nM | O=C1NCCCOc2ccc3[nH]nc(c3c2)-c2ccnc(c2)CO1 [Example 7, 8,14-dioxa-5,10,19,20-tetraazatetracyclo[13.5.2.1^2,6.0^18,21]tricosa-1(20),2,4, 6(23),15,17,21-heptaen-9-one]
